Results published in US10377770B2 (Novartis AG, priority 2015, dated 2019).

biological target: C-Raf FL (full length CRAF with Y340E and Y341E activating mutations, co-expressed with h14-3-3 zeta) (Homo sapiens (Human), UniProt P04049, Y340E/Y341E); experiment: In vitro Raf activity determination, AlphaScreen p-MEK readout, c-Raf (C-Raf FL); type: biochemical; conditions: c-Raf approximately 4 nM, ATP 1 μM, pre-incubation 60 minutes, reaction 1 hour
How it was run: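 Phosphorylation of kinase-dead biotinylated MEK1 (~10 nM) by C-Raf FL (~4 nM) read by AlphaScreen luminescence with anti-phospho-MEK1/2 after EDTA stop. ATP was 1 μM, with a 1 h reaction at room temperature. Compounds were pre-incubated with enzyme and substrate for 60 min in Tris/MgCl2 buffer, pH 7.5.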

C-Raf FL (full length CRAF with Y340E and Y341E activating mutations, co-expressed with h14-3-3 zeta), sequence (P04049 whole entry Y340E/Y341E): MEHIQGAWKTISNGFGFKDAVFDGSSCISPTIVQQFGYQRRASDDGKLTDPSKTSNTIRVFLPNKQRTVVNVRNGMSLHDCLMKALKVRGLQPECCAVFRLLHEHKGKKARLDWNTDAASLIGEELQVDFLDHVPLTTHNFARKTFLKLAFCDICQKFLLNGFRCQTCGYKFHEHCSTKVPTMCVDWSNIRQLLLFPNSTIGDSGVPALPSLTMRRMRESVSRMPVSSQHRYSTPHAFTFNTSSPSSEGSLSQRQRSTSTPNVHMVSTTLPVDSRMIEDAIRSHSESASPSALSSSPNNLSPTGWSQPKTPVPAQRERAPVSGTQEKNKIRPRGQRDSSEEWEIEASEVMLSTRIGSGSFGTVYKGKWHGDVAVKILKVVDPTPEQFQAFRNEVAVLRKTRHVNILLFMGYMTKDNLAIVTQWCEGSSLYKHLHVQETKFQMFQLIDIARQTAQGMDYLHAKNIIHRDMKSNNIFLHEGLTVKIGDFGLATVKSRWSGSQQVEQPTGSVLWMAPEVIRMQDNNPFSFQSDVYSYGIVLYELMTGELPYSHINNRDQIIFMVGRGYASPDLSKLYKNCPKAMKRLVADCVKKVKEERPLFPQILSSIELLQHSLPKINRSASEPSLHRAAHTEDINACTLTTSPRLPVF
C-Raf FL (full length CRAF with Y340E and Y341E activating mutations, co-expressed with h14-3-3 zeta), sequence (P63104 whole entry partner): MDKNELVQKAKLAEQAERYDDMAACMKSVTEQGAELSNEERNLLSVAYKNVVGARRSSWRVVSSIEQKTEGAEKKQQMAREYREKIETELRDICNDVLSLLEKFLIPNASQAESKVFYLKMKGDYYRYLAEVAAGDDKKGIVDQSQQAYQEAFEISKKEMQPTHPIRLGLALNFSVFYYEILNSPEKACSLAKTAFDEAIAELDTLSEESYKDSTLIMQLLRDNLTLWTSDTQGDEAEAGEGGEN

SMILES	IC50
Cc1ncc(NC(=O)c2ccnc(C(C)(F)F)c2)cc1-c1cnc2c(c1)N1CCOC[C@H]1C[C@@H]2O (racemic) [Example 148, rac-cis-2-(1,1-difluoroethyl)-N-(5-(6-hydroxy-1,2,4,4a,5,6-hexahydro-[1,4]oxazino[4,3-a][1,5]naphthyridin-9-yl)-6-methylpyridin-3-yl)isonicotinamide]	0.046 nM
Cc1ccc(NC(=O)c2ccnc(C(C)(C)C#N)c2)cc1-c1cnc2c(c1)N1CCOC[C@H]1C[C@@H]2O (racemic) [Example 149, rac-cis-2-(2-cyanopropan-2-yl)-N-(3-(6-hydroxy-1,2,4,4a,5,6-hexahydro-[1,4]oxazino[4,3-a][1,5]naphthyridin-9-yl)-4-methylphenyl)isonicotinamide]	0.013 nM
Cc1ccc(NC(=O)c2ccnc(C(C)(F)F)c2)cc1-c1cnc2c(c1)N1CCOCC1C1(COC1)C2 (racemic) [Example 152, rac-2-(1,1-difluoroethyl)-N-(4-methyl-3-(2,4,4a,6-tetrahydro-1H-spiro[[1,4]oxazino[4,3-a][1,5]naphthyridine-5,3′-oxetan]-9-yl)phenyl)isonicotinamide]	0.011 nM
Cc1ncc(NC(=O)c2cccc(C(F)(F)F)c2)cc1-c1cnc2c(c1)N1CCOCC1C1(COC1)C2 (racemic) [Example 156, rac-N-(6-methyl-5-(2,4,4a,6-tetrahydro-1H-spiro[[1,4]oxazino[4,3-a][1,5]naphthyridine-5,3′-oxetan]-9-yl)pyridin-3-yl)-3-(trifluoromethyl)benzamide]	0.048 nM
Cc1ccc(NC(=O)c2ccnc(C(C)(C)C#N)c2)cc1-c1cnc2c(c1)N1CCOCC1C1(COC1)C2 (racemic) [Example 157, rac-2-(2-cyanopropan-2-yl)-N-(4-methyl-3-(2,4,4a,6-tetrahydro-1H-spiro[[1,4]oxazino[4,3-a][1,5]naphthyridine-5,3′-oxetan]-9-yl)phenyl)isonicotinamide]	0.16 nM
Cc1ccc(NC(=O)c2ccnc(C(C)(F)F)c2)cc1-c1cnc2c(c1)N1CCOCC1C(CO)(CO)C2 (racemic) [Example 158, rac-N-(3-(5,5-bis(hydroxymethyl)-yl)-1,2,4,4a,5,6-hexahydro-[1,4]oxazino[4,3-a][1,5]naphthyridin-9-yl)-4-methylphenyl)-2-(1,1-difluoroethyl)isonicotinamide]	0.01 nM
Cc1ccc(NC(=O)c2cc(C(F)(F)F)ccn2)cc1-c1cnc2c(c1)N1CCOCC1C(CO)(CO)C2 (racemic) [Example 159, rac-N-(3-(5,5-bis(hydroxymethyl)-1,2,4,4a,5,6-hexahydro-[1,4]oxazino[4,3-a][1,5]naphthyridin-9-yl)-4-methylphenyl)-4-(trifluoromethyl)picolinamide]	0.0068 nM
Cc1ccc(NC(=O)c2ccnc(C(C)(F)F)c2)cc1-c1cnc2c(c1)N1CCOC[C@H]1C(C)(C)[C@@H]2O (racemic) [Example 160, rac-cis-2-(1,1-difluoroethyl)-N-(3-(6-hydroxy-5,5-dimethyl-1,2,4,4a,5,6-hexahydro-[1,4]oxazino[4,3-a][1,5]naphthyridin-9-yl)-4-methylphenyl)isonicotinamide]	0.027 nM
Cc1ccc(NC(=O)c2ccnc(C(C)(F)F)c2)cc1-c1cnc2c(c1)N1CCOC[C@H]1C(F)(F)[C@@H]2O (racemic) [Example 163, rac-cis-N-(3-(5,5-difluoro-6-hydroxy-1,2,4,4a,5,6-hexahydro-[1,4]oxazino[4,3-a][1,5]naphthyridin-9-yl)-4-methylphenyl)-2-(1,1-difluoroethyl)isonicotinamide]	0.02 nM
Cc1ccc(NC(=O)c2ccnc(C(F)(F)F)c2)cc1-c1cnc2c(c1)N1CCOCC1C(F)(F)C2O (racemic) [Example 166, rac-cis-N-(3-(5,5-difluoro-6-hydroxy-1′2′4′4a′5′6-hexahydro-[1,4]oxazino[4,3-a][1,5]naphthyridin-9-yl)-4-methylphenyl)-2-(trifluoromethyl)isonicotinamide]	0.011 nM
Cc1ccc(NC(=O)c2ccnc(C(C)(F)F)c2)cc1-c1cnc2c(c1)N1CCOC[C@H]1C[C@@]2(O)C(F)(F)F (racemic) [Example 169, rac-cis-2-(1,1-difluoroethyl)-N-(3-(6-hydroxy-6-(trifluoromethyl)-1,2,4,4a,5,6-hexahydro-[1,4]oxazino[4,3-a][1,5]naphthyridin-9-yl)-4-methylphenyl)isonicotinamide]	0.032 nM
Cc1ccc(NC(=O)c2ccnc(C(F)(F)F)c2)cc1-c1cnc2c(c1)N1CCOC[C@H]1C[C@@]2(O)C(F)(F)F (racemic) [Example 170, rac-cis-N-(3-(6-hydroxy-6-(trifluoromethyl)-1,2,4,4a,5,6-hexahydro-[1,4]oxazino[4,3-a][1,5]naphthyridin-9-yl)-4-methylphenyl)-2-(trifluoromethyl)isonicotinamide]	0.025 nM
Cc1ccc(NC(=O)c2ccnc(C(F)(F)F)c2)cc1-c1cnc2c(c1)N1CCOCC1CC2N (racemic) [Example 171, rac-N-(3-(6-amino-1,2,4,4a,5,6-hexahydro-[1,4]oxazino[4,3-a][1,5]naphthyridin-9-yl)-4-methylphenyl)-2-(trifluoromethyl)isonicotinamide]	0.019 nM
CCC(=O)NC1CC2COCCN2c2cc(-c3cc(NC(=O)c4ccnc(C(F)(F)F)c4)ccc3C)cnc21 (racemic) [Example 172, rac-N-(4-methyl-3-(6-propionamido-1,2,4,4a,5,6-hexahydro-[1,4]oxazino[4,3-a][1,5]naphthyridin-9-yl)phenyl)-2-(trifluoromethyl)isonicotinamide]	0.034 nM
CNC(=O)C1Cc2ncc(-c3cc(NC(=O)c4ccnc(C(C)(F)F)c4)ccc3C)cc2N2CCOCC12 (racemic) [Example 173, rac-9-(5-(2-(1,1-difluoroethyl)isonicotinamido)-2-methylphenyl)-N-methyl-1,2,4,4a,5,6-hexahydro-[1,4]oxazino[4,3-a][1,5]naphthyridine-5-carboxamide]	0.012 nM
CCN1C(=O)Cc2nncn2-c2cc(-c3cc(NC(=O)c4ccnc(C(C)(F)F)c4)ccc3C)cnc21 (racemic) [Example 234, 2-(1,1-difluoroethyl)-N-(3-(6-ethyl-5-oxo-5,6-dihydro-4H-pyrido[2,3-b][1,2,4]triazolo[4,3-d][1,4]diazepin-9-yl)-4-methylphenyl)isonicotinamide]	1.3 nM
CCN1C(=O)[C@H]2[C@@H]3COC[C@@H]3[C@H]2c2cc(-c3cc(NC(=O)c4ccnc(C(F)(F)F)c4)ccc3C)cnc21 (racemic) [Example 362]	0.2 nM
Cc1ccc(NC(=O)c2ccnc(C(F)(F)F)c2)cc1-c1ccc2c(c1)N1CCOCC1C(CS(C)(=O)=O)C2 (racemic) [Example 363, (rac)-N-(4-methyl-3-(5-((methylsulfonyl)methyl)-1,2,4,4a,5,6-hexahydro-[1,4]oxazino[4,3-a]quinolin-9-yl)phenyl)-2-(trifluoromethyl)isonicotinamide]	0.1 nM
Cc1ncc(NC(=O)c2cccc(C(F)(F)F)c2)cc1-c1ccc2c(c1)N1CCOCC1C(CS(C)(=O)=O)C2 (racemic) [Example 364, (rac)-N-(6-methyl-5-(5-((methylsulfonyl)methyl)-1,2,4,4a,5,6-hexahydro-[1,4]oxazino[4,3-a]quinolin-9-yl)pyridin-3-yl)-3-(trifluoromethyl)benzamide]	0.8 nM
Cc1ccc(NC(=O)c2ccnc(C(C)(C)F)c2)cc1-c1ccc2c(c1)N1CCOCC1C(CS(C)(=O)=O)C2 (racemic) [Example 365, (rac)-2-(2-fluoropropan-2-yl)-N-(4-methyl-3-(5-((methylsulfonyl)methyl)-1,2,4,4a,5,6-hexahydro-[1,4]oxazino[4,3-a]quinolin-9-yl)phenyl)isonicotinamide]	0.2 nM
Cc1ccc(NC(=O)c2ccnc(C(C)(F)F)c2)cc1-c1ccc2c(c1)N1CCOC[C@]1(C)C[C@@H]2O (relative stereo) [Example 26]	0.014 nM
Cc1ccc(NC(=O)c2ccnc(C(C)(F)F)c2)cc1-c1cnc2c(c1)N1CCOC[C@H]1[C@H](F)[C@H]2O (relative stereo) [Example 140, rac-2-(1,1-difluoroethyl)-N-(3-((4aS*,5S*,6S*)-5-fluoro-6-hydroxy-1,2,4,4a,5,6-hexahydro-[1,4]oxazino[4,3-a][1,5]naphthyridin-9-yl)-4-methylphenyl)isonicotinamide]	0.0085 nM
CCN1C(=O)[C@@H]2COCC[C@@]2(C)c2cc(-c3cc(NC(=O)c4ccnc(C(F)(F)F)c4)ccc3C)cnc21 (relative stereo) [Example 341, N-(3-((4a,10b-trans)-6-ethyl-10b-methyl-5-oxo-2,4,4a,5,6,10b-hexahydro-1H-pyrano[3,4-c][1,8]naphthyridin-9-yl)-4-methylphenyl)-2-(trifluoromethyl)isonicotinamide]	0.6 nM
CCN1C(=O)[C@@H]2COCC[C@@]2(C)c2cc(-c3cc(NC(=O)c4ccnc(C(F)(F)F)c4)ccc3C)cnc21 (relative stereo) [Example 342, N-(3-((4a,10b-trans)-6-ethyl-10b-methyl-5-oxo-2,4,4a,5,6,10b-hexahydro-1H-pyrano[3,4-c][1,8]naphthyridin-9-yl)-4-methylphenyl)-2-(trifluoromethyl)isonicotinamide]	0.1 nM
Cc1ccc(NC(=O)c2ccnc(C(C)(F)F)c2)cc1-c1cnc2c(c1)[C@@]1(C)CCOCC[C@@H]1C(=O)N2CCO (relative stereo) [Example 351, 2-(1,1-difluoroethyl)-N-((5a,11b-trans)-3-(7-(2-hydroxyethyl)-11b-methyl-6-oxo-1,2,4,5,5a,6,7,11b-octahydrooxepino[4,5-c][1,8]naphthyridin-10-yl)-4-methylphenyl) isonicotinamide]	1.1 nM
